# Measured values reported in patent publication US20170105920A1, “COSMETIC METHOD USING METAL PHTHALOCYANINE DERIVATIVE” (I'FORET CO., LTD., priority 2010, published 2017).
# Assay: Effectiveness test on suppression of fading, one week at 50° C., visual evaluation
# Assay type: physicochemical
# Protocol: Each beauty essence was kept for one week at 50° C. and its stability was visually evaluated compared to the beauty essence immediately after preparation.
# Expert testers judged the beauty essences tested on a scale of three as specified below: […]
fading (in words) (component blended by 0.05%),SMILES,fading (in words) (component blended by 0.1%),Judgment of appearance (anti-fading) (anti-fading component 0.10% in recipe of Example 4 (0.01% iron phthalocyanine tetracarboxylic acid)),fading (in words) (component blended by 0.2%)
hardly any fading,"O=P(O)(O)O[C@H]1[C@H](OP(=O)(O)O)[C@@H](OP(=O)(O)O)[C@H](OP(=O)(O)O)[C@@H](OP(=O)(O)O)[C@H]1OP(=O)(O)O [Phytic acid, phytic acid]",hardly any fading,–,–
–,"O=C([O-])CN(CCN(CC(=O)O)CC(=O)O)CC(=O)[O-].[Na+].[Na+] [EDTA-2Na, sodium EDTA-2]",Marked fading,Δ~X,some fading
